Data set [1] deals with P-selectin (CD62P) exposure on human platelets. Put plainly: Thrombin-induced P-selectin (CD62P) exposure, flow cytometry. It counts as cell-based. As to conditions: various doses. The procedure: […]. These findings indicate that through the utilization of this FP assay, we successfully identified inhibitors of platelet function, which may warrant further assessment for their potential as antiplatelet agents.
Figure 6 Effect of compounds on human platelet activation. Representative platelet aggregation tracings of washed human platelet suspensions pretreated for 30 min at 37 °C with vehicle (DMSO) or compounds at indicated concentrations followed by activation with thrombin (0.03–0.1 U/mL). Panel (A): NCGC00071855. Panel (B–D): NCGC00351170. Panel (E): CD62P exposure was in the presence of NCGC00351170. Data represents mean ± SEM, n = 4 individual experiments; ns = non significant *P < 0.05, ***P < 0.001, ****P < 0.0001.
Whole blood was drawn by venipuncture from healthy adult volunteers (of both gender and race) with informed consent. Approval was obtained from the institutional review boards of Thomas Jefferson University, according to the Declaration of Helsinki. Blood was collected in acidified citrate dextrose as an anticoagulant. Platelet-rich plasma (PRP) and washed platelets were prepared, as previously described.[44] Platelet aggregation was performed using washed platelet suspensions containing 2 × 10^8 platelets/mL using a Chrono-Log Lumi-Aggregometer (Chrono-Log), as described previously.[11] Aggregation traces were recorded by using Aggrolink software (Chrono-Log). […]

Data set [2] in a line: In vitro ADME: PAMPA permeability.
The target of data set [3] is T1, GST-CIB1 : F-αIIb peptide (Homo sapiens, UniProt Q99828).
T1 construct: made in house; host or cells: BL-21 plus RIL cells (E. coli)
T1 sequence (Q99828 1-191): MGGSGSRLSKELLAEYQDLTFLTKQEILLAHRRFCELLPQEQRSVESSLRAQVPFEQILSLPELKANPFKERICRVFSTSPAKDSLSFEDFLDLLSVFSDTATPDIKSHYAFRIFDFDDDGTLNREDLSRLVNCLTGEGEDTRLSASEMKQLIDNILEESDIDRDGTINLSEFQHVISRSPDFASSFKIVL
In words: FP assay in the presence of glutathione (GSH), thiol reactivity. It counts as binding.

Data set [4] deals with T2, CIB1-(His)6 : F-αIIb peptide (Homo sapiens, UniProt Q99828).
T2 construct: made in house
T2 sequence (Q99828 1-191): T1 sequence (Q99828 1-191)
In words: MST competitive binding study. To be noted: 200 nM F-αIIb, 4 μM CIB1-(His)6; n = 3/concentration. The procedure:
We sought to resolve this discrepancy by performing a competition binding study similar to the conditions of the FP HTS assay by utilizing the F-αIIb probe.
Figure 4 MST competitive binding assay. We selected 200 nM F-αIIb and a CIB1 concentration of 4 μM and tested both compounds. […] Panel (B) highlights the concentration range in which we observe different activities between the two compounds.
The binding affinity of the compounds to the CIB1-(His)6 protein in the presence of αIIb peptide was evaluated using FITC-labeled αIIb as well. Following manufacturer’s recommendation,[66] we first determined a minimum concentration of F-αIIb by performing a titration of the fluorophore (1 μM, 1:2, 8-points; final concentration range of 7.8 nM to 1 μM) in a 10 μL assay volume. Solutions were placed in standard capillaries and evaluated for the fluorescent signal using the Monolith NT.115 instrument. […] CIB1-(His)6 protein was titrated in a 2-fold dilution series (16-points, final concentration range of 15 nM to 500 μM), at a final volume of 12.5 μL. An equal volume of [2×] […] Solutions were placed in standard capillaries, incubated for approximately 1 h, and evaluated for a fluorescent signal with 50% LED excitation power, 20, 40, or 60% MST power (low, medium, high, respectively), MST on-time of 30 s, and off-time of 5 s.
Compounds were titrated in a 2-fold dilution series (16 points, final concentration range of 6.1 nM to 200 μM) and mixed with an equal volume CIB1-(His)6 protein and F-αIIb peptide (final concentrations of 4 μM and 200 nM, respectively). Solutions were incubated for 1 h at RT, then placed in standard capillaries, and evaluated for fluorescent signal (in triplicate) at the following parameters: 50% LED excitation power, 40% MST power, MST on-time of 30 s, and off-time of 5 s using Monolith NT.115 instrument. Dissociation constant (Kd) values were calculated by fitting the thermophoresis signal at 20 s of the thermograph using the MO Affinity Analysis software (Nanotemper Technologies, Munich, Germany) and confirmed using Graphpad Prism 7.

pEC50, pIC50: −log10 of the molar value. Where two headings read alike, the source gives them in different places.

As a reminder, the Papp is the rate of passage across a membrane or cell layer, normalised by area and donor concentration. Read a low Papp as poor permeation. In general, pIC50 refers to the IC50 on a negative log10 scale, so that one unit is a factor of ten. In general, pEC50 refers to −log10 of the EC50, conventionally taken in molar units. A low value points to a high EC50. For the compound `COc1ccccc1C(=O)c1no[n+]([O-])c1C(=O)c1ccccc1OC.O=C(O)C(F)(F)F` [NCGC00351170-01], the “P-selectin (CD62P) exposure” value in data set [1] is “dose-dependent inhibition of platelet activation”. The compound further returned a Papp in data set [2] of 102 ×10⁻⁶ cm/s. The pIC50 in data set [3] (FP assay in the presence of glutathione (GSH +), read-out: GSH (+) Assay IC50) is 5.92; in data set [3] (FP assay without glutathione (GSH -), read-out: GSH (-) Assay IC50), 5.40. Besides, the “GSH/CIB1 IC50 ratio” value in data set [3] (ratio of GSH (+) IC50 to GSH (-) IC50) turned out to be 0.3. Also, the “GSH Assay Result” value in data set [3] (thiol reactivity call: No change / Active) is given as “No change”. Further, the pEC50 in data set [4] is 5.68.

These data come from publication PMC11249646, “Small-Molecule Disruptors of the Interaction between Calcium- and Integrin-Binding Protein 1 and Integrin αIIbβ3 as Novel Antiplatelet Agents” (ACS Pharmacology & Translational Science, 2024).
